The term IC50 denotes the concentration that inhibits the measured activity by half. Lower therefore signals greater potency.

26 molecules from patent publication US11472791B2 (Incyte Corporation, priority 2019, dated 2022) can be followed below.

This assay deals with CDK2/Cyclin E1 (Homo sapiens (Human), UniProt P24941). Kind of assay: CDK2/Cyclin E1 HTRF enzyme activity assay. The following applies: 1 mM ATP. The format is biochemical. The protocol: Assays are conducted in white 384-well polystyrene plates in a final reaction volume of 8 μL. […] HTRF signals are read after 1 hour at room temperature on a PHERAstar FS plate reader (BMG Labtech). Data is analyzed with IDBS XLFit and GraphPad Prism 5.0 software using a three or four parameter dose response curve to determine IC50 for each compound.
`[2H]C([2H])([2H])NCc1ccc(-n2cc(-c3nc(NC4CCN(S(=O)(=O)c5cnn(C)c5)CC4)ncc3C#N)cn2)c(C)n1` [Example 149, 2-((1-((1-Methyl-1H-pyrazol-4-yl)sulfonyl)piperidin-4-yl)amino)-4-(1-(2-methyl-6-(((methyl-d3)amino)methyl)pyridin-3-yl)-1H-pyrazol-4-yl)pyrimidine-5-carbonitrile] showed an IC50 of less than 50 nM.

Turning to `CC(C)(O)Cn1cc(-c2nc(NC3CCN(S(=O)(=O)CCCCO)CC3)ncc2C(F)(F)F)cn1` [Example 93, 4-((4-((4-(1-(2-Hydroxy-2-methylpropyl)-1H-pyrazol-4-yl)-5-(trifluoromethyl)pyrimidin-2-yl)amino)piperidin-1-yl)sulfonyl)butan-1-ol], the IC50 is less than 50 nM.

As for `Cc1cc(CN2CCN(C)CC2)ccc1-n1cc(-c2nc(NC3CCN(S(=O)(=O)C4CC4)CC3)ncc2C(F)(F)F)cn1` [Example 234, N-(1-(Cyclopropylsulfonyl)piperidin-4-yl)-4-(1-(2-methyl-4-((4-methylpiperazin-1-yl)methyl)phenyl)-1H-pyrazol-4-yl)-5-(trifluoromethyl)pyrimidin-2-amine], the IC50 is less than 50 nM.

In the case of `[2H]C([2H])([2H])NCc1ccc(-n2cc(-c3nc(N[C@H]4CCN(S(C)(=O)=O)C[C@H]4F)ncc3C(F)(F)F)cn2)c(C)c1` [Example 132, N-((3R,4S)-3-Fluoro-1-(methylsulfonyl)piperidin-4-yl)-4-(1-(2-methyl-4-(((methyl-d3)amino)methyl)phenyl)-1H-pyrazol-4-yl)-5-(trifluoromethyl)pyrimidin-2-amine], the IC50 was less than 50 nM.

`CC(C)(O)CCS(=O)(=O)N1CCC(Nc2ncc(C(F)(F)F)c(-c3cnn(CC(C)(C)O)c3)n2)CC1` [Example 94, 4-((4-((4-(1-(2-Hydroxy-2-methylpropyl)-1H-pyrazol-4-yl)-5-(trifluoromethyl)pyrimidin-2-yl)amino)piperidin-1-yl)sulfonyl)-2-methylbutan-2-ol] had an IC50 of less than 50 nM.

For the molecule `C[C@H](O)CNCc1ccc(-n2cc(-c3nc(NC4CCN(S(C)(=O)=O)CC4)ncc3C#N)cn2)c(Cl)c1` [Example 292, (S)-4-(1-(2-Chloro-4-(((2-hydroxypropyl)amino)methyl)phenyl)-1H-pyrazol-4-yl)-2-((1-(methylsulfonyl)piperidin-4-yl)amino)pyrimidine-5-carbonitrile], the IC50 is less than 50 nM.

Consider `CN1CCN(Cc2ccc(-n3cc(-c4nc(NC5CCN(S(=O)(=O)C6CC6)CC5)ncc4C#N)cn3)c(Cl)c2)CC1` [Example 259, 4-(1-(2-Chloro-4-((4-methylpiperazin-1-yl)methyl)phenyl)-1H-pyrazol-4-yl)-2-((1-(cyclopropylsulfonyl)piperidin-4-yl)amino)pyrimidine-5-carbonitrile], for which the IC50 was less than 50 nM.

`CN(C)CCCCS(=O)(=O)N1CCC(Nc2ncc(C(F)(F)F)c(-c3cnn(CC(C)(C)O)c3)n2)CC1` [Example 78, 1-(4-(2-((1-((4-(Dimethylamino)butyl)sulfonyl)piperidin-4-yl)amino)-5-(trifluoromethyl)pyrimidin-4-yl)-1H-pyrazol-1-yl)-2-methylpropan-2-ol] registered an IC50 of less than 50 nM.

Consider `Cn1cnc(S(=O)(=O)N2CCC(Nc3ncc(Cl)c(-c4cnn(CC(F)(F)F)c4)n3)CC2)c1` [Example 40, 5-Chloro-N-(1-((1-methyl-1H-imidazol-4-yl)sulfonyl)piperidin-4-yl)-4-(1-(2,2,2-trifluoroethyl)-1H-pyrazol-4-yl)pyrimidin-2-amine], for which the IC50 is less than 50 nM.

On to `CC(=O)N1CC[C@H](NCc2ccc(-n3cc(-c4nc(NC5CCN(S(C)(=O)=O)CC5)ncc4C#N)cn3)c(Cl)c2)C1` [Example 169, (S)-4-(1-(4-(((1-Acetylpyrrolidin-3-yl)amino)methyl)-2-chlorophenyl)-1H-pyrazol-4-yl)-2-((1-(methylsulfonyl)piperidin-4-yl)amino)pyrimidine-5-carbonitrile], for which the IC50 is less than 50 nM.

For `[2H]C([2H])([2H])NCc1ccc(-n2cc(-c3nc(NC4CCN(S(C)(=O)=O)CC4)ncc3Cl)cn2)c(Cl)c1` [Example 134, 5-Chloro-4-(1-(2-chloro-4-(((methyl-d3)amino)methyl)phenyl)-1H-pyrazol-4-yl)-N-(1-(methylsulfonyl)piperidin-4-yl)pyrimidin-2-amine], the IC50 was less than 50 nM.

Consider `Cc1nc(CNC(C)C)ccc1-n1cc(-c2nc(N[C@H]3CCN(S(=O)(=O)c4cn(C)cn4)C[C@H]3C)ncc2C#N)cn1` [Example 278, 4-(1-(6-((Isopropylamino)methyl)-2-methylpyridin-3-yl)-1H-pyrazol-4-yl)-2-(((3R,4S)-3-methyl-1-((1-methyl-1H-imidazol-4-yl)sulfonyl)piperidin-4-yl)amino)pyrimidine-5-carbonitrile], for which the IC50 was less than 50 nM.

Molecule `CCN(CC)CCCS(=O)(=O)N1CCC(Nc2ncc(C#N)c(-c3cnn(CC(C)(C)O)c3)n2)CC1` [Example 213, 2-((1-((3-(Diethylamino)propyl)sulfonyl)piperidin-4-yl)amino)-4-(1-(2-hydroxy-2-methylpropyl)-1H-pyrazol-4-yl)pyrimidine-5-carbonitrile] displayed an IC50 of less than 50 nM.

As for `CNCc1ccc(-n2cc(-c3nc(NC4CCN(S(C)(=O)=O)CC4)ncc3C(F)(F)F)cn2)c(Cl)c1` [Example 29, 4-(1-(2-Chloro-4-((methylamino)methyl)phenyl)-1H-pyrazol-4-yl)-V-(1-(methylsulfonyl)piperidin-4-yl)-5-(trifluoromethyl)pyrimidin-2-amine], the IC50 was less than 50 nM.

As to `CC(C)(O)Cn1cc(-c2nc(NC3CCN(S(C)(=O)=O)CC3)ncc2C(F)(F)F)cn1` [Example 52, 2-Methyl-1-(4-(2-((1-(methylsulfonyl)piperidin-4-yl)amino)-5-(trifluoromethyl)pyrimidin-4-yl)-1H-pyrazol-1-yl)propan-2-ol], the IC50 was less than 50 nM.

Consider `CCS(=O)(=O)N1CCC(Nc2ncc(C#N)c(-c3cnn(-c4ccc(CN[C@H]5CC[C@@](C)(O)CC5)cc4Cl)c3)n2)CC1` [Example 175, 4-(1-(2-Chloro-4-((((1s,4s)-4-hydroxy-4-methylcyclohexyl)amino)methyl)phenyl)-1H-pyrazol-4-yl)-2-((1-(ethylsulfonyl)piperidin-4-yl)amino)pyrimidine-5-carbonitrile], for which the 50% inhibitory concentration (IC50) is less than 50 nM.

In the case of `Cc1nc(CNC(C)C)ccc1-n1cc(-c2nc(NC3CCN(S(=O)(=O)c4cn(C)cn4)CC3)ncc2Cl)cn1` [Example 274, 5-Chloro-4-(1-(6-((isopropylamino)methyl)-2-methylpyridin-3-yl)-1H-pyrazol-4-yl)-N-(1-((1-methyl-1H-imidazol-4-yl)sulfonyl)piperidin-4-yl)pyrimidin-2-amine], the IC50 is less than 50 nM.

As for `CS(=O)(=O)N1CCC(Nc2ncc(C#N)c(-c3cnn(-c4ccc(CN[C@@H]5CCCC[C@H]5CO)cc4Cl)c3)n2)CC1` [Example 288], the IC50 was less than 50 nM.

In turn, `Cn1cnc(S(=O)(=O)N2CCC(Nc3ncc(C(F)(F)F)c(-c4cnn(CC(F)F)c4)n3)CC2)c1` [Example 31, 4-(1-(2,2-Difluoroethyl)-1H-pyrazol-4-yl)-N-(1-((1-methyl-1H-imidazol-4-yl)sulfonyl)piperidin-4-yl)-5-(trifluoromethyl)pyrimidin-2-amine] yielded an IC50 of less than 50 nM.

`CC(C)(O)Cn1cc(-c2nc(NC3CCN(S(=O)(=O)C4CCC(N5CCC5)CC4)CC3)ncc2C(F)(F)F)cn1` (single isomer, unassigned) [90 (peak 1), 1-(4-(2-((1-((4-(Azetidin-1-yl)cyclohexyl)sulfonyl)piperidin-4-yl)amino)-5-(trifluoromethyl)pyrimidin-4-yl)-1H-pyrazol-1-yl)-2-methylpropan-2-ol] returned an IC50 of less than 50 nM.

With `CC(C)(O)Cn1cc(-c2nc(NC3CCN(S(=O)(=O)CCCCN4CCCC4)CC3)ncc2C#N)cn1` [Example 217, 4-(1-(2-Hydroxy-2-methylpropyl)-1H-pyrazol-4-yl)-2-((1-((4-(pyrrolidin-1-yl)butyl)sulfonyl)piperidin-4-yl)amino)pyrimidine-5-carbonitrile], the IC50 is less than 50 nM.

Consider `Cc1cc(CN2CCN(C)CC2)ccc1-n1cc(-c2nc(N[C@H]3CCN(S(=O)(=O)c4cn(C)cn4)C[C@H]3F)ncc2C(F)(F)F)cn1` [Example 102, N-((3R,4S)-3-Fluoro-1-((1-methyl-1H-imidazol-4-yl)sulfonyl)piperidin-4-yl)-4-(1-(2-methyl-4-((4-methylpiperazin-1-yl)methyl)phenyl)-1H-pyrazol-4-yl)-5-(trifluoromethyl)pyrimidin-2-amine], for which the IC50 is less than 50 nM.

With `CNCc1ccc(-n2cc(-c3nc(N[C@H]4CCN(S(=O)(=O)CCCC#N)C[C@H]4F)ncc3C#N)cn2)c(Cl)c1` [Example 122, 4-(1-(2-Chloro-4-((methylamino)methyl)phenyl)-1H-pyrazol-4-yl)-2-(((3R,4S)-1-((3-cyanopropyl)sulfonyl)-3-fluoropiperidin-4-yl)amino)pyrimidine-5-carbonitrile], the IC50 was less than 50 nM.

`CN(C)CCS(=O)(=O)N1CCC(Nc2ncc(C(F)(F)F)c(-c3cnn(CC(C)(C)O)c3)n2)CC1` [Example 83, 1-(4-(2-((1-((2-(Dimethylamino)ethyl)sulfonyl)piperidin-4-yl)amino)-5-(trifluoromethyl)pyrimidin-4-yl)-1H-pyrazol-1-yl)-2-methylpropan-2-ol]: the IC50 is less than 50 nM.

Consider `CN1CCC(n2cc(-c3nc(NC4CCN(S(C)(=O)=O)CC4)ncc3F)c(C(F)(F)F)n2)CC1` [Example 17, 5-Fluoro-4-(1-(1-methylpiperidin-4-yl)-3-(trifluoromethyl)-1H-pyrazol-4-yl)-N-(1-(methylsulfonyl)piperidin-4-yl)pyrimidin-2-amine], for which the IC50 was less than 50 nM.

In turn, `CC(O)(Cn1cc(-c2nc(NC3CCN(S(C)(=O)=O)CC3)ncc2C(F)(F)F)cn1)C(F)(F)F` (racemic) [Example 95, (±)-1,1,1-Trifluoro-2-methyl-3-(4-(2-((1-(methylsulfonyl)piperidin-4-yl)amino)-5-(trifluoromethyl)pyrimidin-4-yl)-1H-pyrazol-1-yl) propan-2-ol] registered an IC50 of less than 50 nM.
